The target in experiment [1] is T1, SARM1 TIR (Homo sapiens (Human), UniProt Q6SZW1). The experiment is described as follows: NADase assay with purified bacterial hSARM1-TIR, enzyme inhibition studies. It counts as biochemical. The settings on record: 1 mM in the reaction mixture, 5 min.
Target sequence in this assay (Q6SZW1 other isoform, or with tags, fused parts or gaps): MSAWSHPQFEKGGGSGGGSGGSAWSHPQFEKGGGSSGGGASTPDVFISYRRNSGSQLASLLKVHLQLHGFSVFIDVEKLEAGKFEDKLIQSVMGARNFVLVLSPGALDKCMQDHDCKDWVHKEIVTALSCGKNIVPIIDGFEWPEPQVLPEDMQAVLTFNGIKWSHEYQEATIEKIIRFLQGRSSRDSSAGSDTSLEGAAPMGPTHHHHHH
Method: Ten microliters of beads incubated with the indicated cell lysate were incubated with 5 μM NAD in reaction buffer (92.4 mM NaCl and 0.64×PBS). Reactions were carried out at 25° C. for the indicated amount of time and stopped by addition of 1M of perchloric acid (HClO4) and placing the tube on ice. NAD+ metabolites were extracted using HClO4/K2CO3 method and quantified by HPLC (see HPLC for metabolite measurement).
Metabolites were isolated from enzyme reaction mixture by extracting with 1M HClO4, then neutralized with 3M K2CO3, and followed by separation by centrifugation. The supernatant (90 μL) containing the extracted metabolites was mixed with 0.5M Potassium Phosphate buffer (10 μL) and metabolites were analyzed by HPLC (Nexera X2) with Kinetex (100×3 mm, 2.6 μm; Phenomenex) column. […] The levels for each compound in each experimental sample were normalized to the 0 min time point that was analyzed concurrently.
The reaction was stopped after 5 min and NAD+ metabolites were extracted by the perchloric acid method and measured by HPLC as indicated above.
The target of a further experiment is SARM1 SAM-TIR lysate (Homo sapiens (Human), UniProt Q6SZW1). Description: Luminescence-based NAD+ Glo (NAD+ cycling) assay with SAM-TIR lysate. It counts as biochemical. An excerpt: Luminescence-based assay. This assay can complement the results obtained by HPLC, and can permit a higher throughput of compound library screening than is possible with HPLC methods. This assay is an adaptation of the NAD+/NADH-GLO™ assay (Promega G9071, Promega Corporation, Madison, WI). In this assay, NAD+ cycling enzymes convert NAD+ into NADH. In the presence of NADH, the reductase enzymatically converts a pro-luciferin reductase substrate into luciferin. Luciferin is detected using ULTRA-GLO™ rLuciferase, and the chemiluminescence intensity is proportional to the amount of NAD+ and NADH in the sample. Under the present assay conditions, the amount of NAD+ and NADH present in the lysate is undetectable with this assay, precluding any endogenous contribution to the final NAD+ detected. The assay was set up as follows: 2 μl candidate inhibitor (final concentration 1 μM, 2% DMSO), 0.07 μg lysate (2 μl), and 2 μl of 400 nM NAD+. The reaction was incubated at 37° C. for 60 min, then 6 μl NAD+/NADH-GLO™ detection reagent was added. After 30 min at room temperature, the luminescent signals were quantified using a CYTATION™ 5 imaging reader (BIOTEK®).

Experiment [2] addresses T1, SARM1 TIR. The experiment is described as follows: SARM1 TIR-based assay (bacterially expressed, tagged SARM1 TIR fragment on beads). It counts as biochemical. The settings on record: compound at 5 μM, 5 μM NAD+. An excerpt: The present Example describes a SARM1 TIR-based Assay. This assay is similar to the assay described in Example 1, but allows for the identification and/or characterization of compounds that directly interact with the TIR domain, whereas the assay described in Example 1 can also identify compounds that disrupt SAM domain interactions. This assay makes use of the bacterial expression of a tagged version of the SARM1 TIR fragment that can be affinity purified. Displaying this artificial SARM1 TIR domain on a solid surface (i.e. affinity beads) generates an active NAD+ cleavage enzyme.
The TIR domain of SARM1 was tagged with a tandem STREP-TAG® at the N-terminus, and a polyhistidine tag at the C-terminus, and was cloned into a pET30a+ plasmid. The construct was then transformed into SHuffle® T7 Express Competent E. coli (New England BioLabs, Ipswich, MA) and single colonies were grown overnight. The next day, cultures were diluted in LB media, grown at 30° C. until they reached A600=0.4-0.8, when IPTG (0.5 mM final concentration) was added. The bacteria were grown for an additional 4 h, pelleted by centrifugation, washed with PBS and stored at −80° C. For protein purification, the frozen bacterial pellet was thawed on ice, resuspended in binding buffer (without protease inhibitors) and incubated with 100 μg/mL lysozyme for 15 min on ice. Protease inhibitor cocktail was then added and the cells were lysed by sonication.
The SARM1 TIR protein was first purified by Strep Tag affinity methods where bacterial lysates were incubated with […] (STREP-TACTIN®, IBA GmBH, Gottingen Germany) type 3 XT beads suspension (IBA Lifesciences) for 30 min. The beads were then washed three times with binding buffer, and bound proteins were eluted from MagStrep type 3 XT beads with 22.5 mM biotin for 25 min. Supernatant containing the eluted protein was separated from MagStrep beads, and incubated with 10 μL Co2+ DYNABEAD® (ThermoFisher Scientific, Waltham, MA) suspension for 30 min to bind SARM1-TIR proteins via the His tag. The beads were then washed at least two times with binding buffer and resuspended in 100 μL of binding buffer for NADase assay.
Ten microliters of purified SARM1-TIR laden beads were incubated with 5 μM NAD+ in reaction buffer (92.4 mM NaCl and 0.64×PBS). Reactions were carried out at 25° C. for the indicated amount of time and stopped by addition of 1M of perchloric acid (HClO4) and placing the tube on ice. NAD+ metabolites were extracted using HClO4/K2CO3 method and quantified by HPLC (see metabolite measurement below). For LC-MS/MS analysis, the extraction was performed using 50% methanol in distilled water and chloroform (see LC-MS/MS metabolite measurement below). […] Select potent inhibitors (622608, 622689) identified from SARM1 SAM-TIR lysate screen were added to the reaction at 5 μM. NAD normalized to control at 0 min.
Metabolites were isolated from enzyme reaction mixture by extracting with 1M HClO4, then neutralized with 3M K2CO3, and followed by separation by centrifugation. The supernatant (90 μL) containing the extracted metabolites was mixed with 0.5M Potassium Phosphate buffer (10 μL) and metabolites were analyzed by HPLC (Nexera X2) with KINETEX® (100×3 mm, 2.6 μm; PHENOMENEX®) column and metabolites are monitored with absorbance at 254 nm. Internal standards for NAD+, Nicotinamide (Nam), ADP Ribose (ADPR) were used to generate standard curves for quantification of the respective compounds. The levels for each compound in each experimental sample was normalized to the 0 min time point that was analyzed concurrently.
These analogs were tested using an assay that makes use of a bacterially-expressed tagged version of the SARM1 TIR fragment, as described in Example 2. Displaying this artificial SARM1 TIR domain on a solid surface (i.e. affinity beads) generates an active NAD+ cleavage enzyme.

The next experiment relates to DRG neurons. Description: In vitro axon degeneration assay after axotomy (degeneration index). It counts as cell-based, mouse. As to the method:
Mouse dorsal root ganglion (DRG) were dissected from embryonic days 13.5 CD1 mouse embryo (˜50 ganglion per embryo) and incubated with 0.05% Trypsin solution containing 0.02% EDTA (Gibco) at 37° C. for 15 min. Then cell suspensions are triturated by gentle pipetting and washed 3 times with DRG growth medium (Neurobasal medium (Gibco) containing 2% B27 (Invitrogen), 100 ng/ml 2.5S NGF (Harlan Bioproduts), 1 μM uridine (Sigma), 1 μM 5-fluoro-2′-deoxyuridine (Sigma), penicillin, and streptomycin). Cells were suspended in DRG growth medium at a ratio of 100 μl medium/50 DRGs. The cell density of these suspensions was ˜7×10^6 cells/ml. Cell suspension (10 μl) was placed in the center of the well using 24-well tissue culture plates (Corning) coated with poly-D-Lysine (0.1 mg/ml; Sigma) and laminin (3 μg/ml; Invitrogen). […]
Axonal degeneration was induced by axotomy or by the addition of vincristine (0.04 μM) using DRG drop cultures in 96 well at DIV 6. […] Axon degeneration was quantified using degeneration index (DI) calculated using ImageJ (NIH, Sasaki et al., 2009, J. Neurosci., […]: 5525-5535). […] The DI was calculated from axon images from the same fields before (0 hour) and after (9-72 hours) axotomy. […] Axon degeneration was monitored by imaging axons before injury, and various time points after axotomy.

Experiment [3] concerns the target T1, SARM1 TIR. The experiment is described as follows: In vitro NADase assay with SARM1-TIR complexes purified from NRK1-HEK293T cells, substrate specificity. It counts as biochemical. How it is done: Approximately 10 million cells were plated and transfected the next day with 15 μg of StrepTag SARM1-TIR construct DNA using X-tremeGENE™ 9 reagent (Sigma-Aldrich, St. Louis MO). […] After 2 days the cells were harvested and lysed by sonication in binding buffer (50 mM Sodium Phosphate buffer pH 8, 300 mM Sodium Chloride, 0.01% Tween-20, protease inhibitor tablets). For single step affinity purification, the whole cell lysates were incubated with 20 μL MagStrep (Strep-Tactin) type 3 XT beads suspension (IBA Lifesciences) for 30 min. The beads were then washed three times with binding buffer and resuspended in 100 μL of binding buffer for enzymatic assays and other downstream applications.
Ten microliters of beads incubated with the indicated cell lysate were incubated with 5 μM NAD in reaction buffer (92.4 mM NaCl and 0.64×PBS). […] NAD+ metabolites were extracted using HClO4/K2CO3 method and quantified by HPLC (see HPLC for metabolite measurement). […]
Metabolites were isolated from enzyme reaction mixture by extracting with 1M HClO4, then neutralized with 3M K2CO3, and followed by separation by centrifugation. The supernatant (90 μL) containing the extracted metabolites was mixed with 0.5M Potassium Phosphate buffer (10 μL) and metabolites were analyzed by HPLC (Nexera X2) with Kinetex (100×3 mm, 2.6 μm; Phenomenex) column. […]
Target sequence in this assay (Q6SZW1 561-724): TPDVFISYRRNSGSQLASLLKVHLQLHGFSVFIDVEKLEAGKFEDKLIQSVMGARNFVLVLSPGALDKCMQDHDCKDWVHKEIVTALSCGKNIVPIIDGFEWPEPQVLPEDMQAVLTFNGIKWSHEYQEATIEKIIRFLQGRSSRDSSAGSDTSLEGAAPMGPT

Sequence of SARM1 SAM-TIR lysate (Q6SZW1 other isoform, or with tags, fused parts or gaps): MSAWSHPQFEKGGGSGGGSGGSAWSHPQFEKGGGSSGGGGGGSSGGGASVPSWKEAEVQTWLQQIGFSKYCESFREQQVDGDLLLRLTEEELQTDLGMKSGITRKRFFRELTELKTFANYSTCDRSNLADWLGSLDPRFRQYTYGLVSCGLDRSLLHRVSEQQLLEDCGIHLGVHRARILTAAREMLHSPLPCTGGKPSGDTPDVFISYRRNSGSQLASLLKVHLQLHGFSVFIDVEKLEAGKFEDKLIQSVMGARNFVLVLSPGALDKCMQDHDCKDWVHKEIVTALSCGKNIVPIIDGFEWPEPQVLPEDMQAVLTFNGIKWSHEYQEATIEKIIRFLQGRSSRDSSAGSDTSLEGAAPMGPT

On to `Nc1ncnc2c1ncn2[C@@H]1O[C@H](COP(=O)(O)OP(=O)(O)OC[C@H]2OC(O)[C@H](O)[C@@H]2O)[C@@H](O)[C@H]1O` (stereo partly drawn) [ADPR, ADP Ribose], for which the “inhibition of SARM1-TIR NADase activity” value on SARM1 TIR [1] is given as “did not inhibit”.
The term IC50 denotes the point on the concentration scale where inhibition reaches its midpoint. Low readings indicate higher potency, high ones lower potency. With `Br.CN(C)c1nc(=NCc2ccco2)ss1` [NSC622608], the IC50 against SARM1 SAM-TIR lysate is roughly 150 nM. In addition, the “inhibition of NADase activity of purified SARM1 TIR” value against SARM1 TIR [2] is “inhibit NADase activity of purified SARM1 TIR”. For the same compound, the “dose dependence of inhibition of axon degeneration” value with DRG neurons (0.05 to 5 μM, added 30 min before axotomy) is on record as “dose dependent inhibition of axon degeneration”. In addition, in the experiment on DRG neurons (24 h after axotomy), the “protection from axon degeneration (degeneration index)” value is “significant protection”.
As for `Nc1ncnc2c1ncn2[C@@H]1O[C@H](COP(=O)(O)OP(=O)(O)OC[C@H]2O[C@@H]([n+]3cccc(C(=O)O)c3)[C@H](O)[C@@H]2O)[C@@H](O)[C@H]1O` [NaAD, Nicotinic Acid Adenine Dinucleotide], the “degradation by wild type SARM1-TIR complexes (substrate specificity)” value at SARM1 TIR [3] is recorded as “do not degrade”.

These data come from patent US11903935B2, “Inhibitors of SARM1 NADase activity and uses thereof” (Washington University, priority 2016, dated 2024).
